Where “and” joins values, the source holds several entries; their conditions need not be identical. Identical values can stand only once. Like-named read-outs stand apart in the source and are kept apart here.
Legend:
[1] = test system: PfA-M17 (M17 LAP from Plasmodium falciparum); conditions: cited from earlier work
[2] = target: T1, LAPTc (acidic M17 leucyl-aminopeptidase from T. cruzi) (Trypanosoma cruzi, UniProt V5BWE3); assay: High-throughput single point screening for LAPTc inhibitors by RapidFire-MS; format: biochemical; conditions: primary screen, 30 μM, single replicate; read-out: Percent Inhibition
T1 sequence (V5BWE3 entry or part of it): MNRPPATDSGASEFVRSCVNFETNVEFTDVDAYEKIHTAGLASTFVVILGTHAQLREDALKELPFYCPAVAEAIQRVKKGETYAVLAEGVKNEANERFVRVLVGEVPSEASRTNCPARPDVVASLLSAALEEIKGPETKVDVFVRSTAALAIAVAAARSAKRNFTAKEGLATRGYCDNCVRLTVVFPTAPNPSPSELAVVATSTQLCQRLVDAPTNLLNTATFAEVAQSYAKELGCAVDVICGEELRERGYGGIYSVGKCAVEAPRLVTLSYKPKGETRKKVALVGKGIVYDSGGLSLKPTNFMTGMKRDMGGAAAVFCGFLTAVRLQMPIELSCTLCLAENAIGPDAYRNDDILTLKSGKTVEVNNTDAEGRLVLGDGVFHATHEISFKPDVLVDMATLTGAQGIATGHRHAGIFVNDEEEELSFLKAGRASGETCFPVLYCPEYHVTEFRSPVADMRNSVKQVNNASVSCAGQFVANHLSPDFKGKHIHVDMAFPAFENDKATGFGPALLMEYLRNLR
Procedure: (§1) This assay was previously described. The assay was performed in 384-well clear F-bottom polypropylene plates with a final reaction volume of 15 μL. The reaction mixture contained 7.5 μL LAPTc in 50 mM Tris-HCl, pH 7.5, 0.005% NP-40 and 7.5 μL LSTVIVR peptide substrate (Cambridge Research Biochemicals, Billingham, UK) in the same buffer was added to start the reaction. The reaction was performed at room temperature for 40 min and then stopped with 85 μL 1% formic acid containing 0.15 mg/mL STVIVR* internal standard (Cambridge Research Biochemicals, Billingham, UK).
Single point screening of a library of 3329 compounds was performed in 384-well clear plates (Greiner 781101) at room temperature. Test compounds (45 nL in DMSO) were transferred to assay plates by an ECHO 550 acoustic dispenser (Labcyte). LAPTc was tested at 3 nM with 150 μM (approximately the value of the apparent Michaelis-Menten constant -appKM- [16]) LSTVIVR peptide substrate in a 40 min reaction. Before addition of substrate, LAPTc was preincubated with 45 nL compounds or DMSO for 15 min. Compounds, dissolved in DMSO, were tested at 30 μM. Controls without compound (the same volume of DMSO, 0% inhibitory effect) and without enzyme and compound (100% inhibitory effect) were prepared. The experiment was performed without replicates. The remaining experimental conditions were maintained as previously described. Data were processed and analysed through ActivityBase XE (IDBS). The selection criterion for hits in this single point screen was percent inhibition larger than the mean plus three standard deviations. All primary screening data are available in ChEMBL (see Data Availability statement).

[3] = target: T1, LAPTc (acidic M17 leucyl-aminopeptidase from T. cruzi); assay: Dose-response studies for LAPTc inhibition by RapidFire-MS; format: biochemical; conditions: for Emax: read-out: Maximum Effect; for Hit Confirmation: whether primary screen hit confirmed in potency experiment
Procedure: as §1
To generate half-maximum inhibitory concentration (IC50) data for LAPTc, 10-point dose-response curves with 100 μM as highest concentration and 1:2 dilution in DMSO (0.195–100 μM range) were prepared in 384 well plates. All other experimental conditions were as described above. All IC50 curve fitting was performed by four-parameter logistic dose-response curve fit using ActivityBase XE (IDBS). At least three replicates were generated for each hit compound.

[4] = test system: intracellular T. cruzi amastigotes; assay: T. cruzi intracellular assay (high-content imaging, infected Vero cells); format: cell-based, Trypanosoma cruzi; parameters: Max Effect (T. cruzi): unit not given here; conditions: for EC50 / Emax: Trypanosoma cruzi, Vero; for Emax: read-out: Max Effect (T. cruzi)
Procedure: T. cruzi parasite, TcI strain Silvio X10/7 subclone A1 [34] was maintained in culture as previously described. Parasites were maintained as amastigotes by passaging on a weekly basis in Vero cells. Culture maintenance infections were carried out at an MOI (multiplicity of infection) of 1.5.
(§2) This assay was performed as described with the only modification that treatment was 96 h instead of 72 h. Briefly, Vero cells were infected overnight with tissue culture derived T. cruzi trypomastigotes in T225 tissue culture flasks (MOI 5). Any remaining free trypomastigotes were washed away with serum free MEM and the infected Vero cells were harvested by trypsinisation. Compounds (250 nL in DMSO) were dispensed using LabCyte ECHO (Beckman Coulter Life Sciences, USA) into each well of Corning black flat bottomed 384-well plates (Corning, USA). […] The infected Vero cells were then plated into the plates containing the compounds, at 4,000 cells per well in MEM media with 1% FCS. After 96 h incubation at 37°C in presence of 5% CO2, the plates were fixed with 4% formaldehyde for 20 min at room temperature and stained with 5 μg/mL Hoechst 33342. The plates were imaged on a Perkin Elmer Operetta high-content imaging system using a 20× objective. Images were analyzed using the Columbus system (Perkin Elmer). The algorithm first identified the Vero nuclei followed by demarcation of the cytoplasm and identification of intracellular amastigotes. This algorithm reported percent infected Vero cell and total number of Vero cells. All potency determinations were carried out in at least three independent replicates and are reported as pEC50 +/- standard deviation. pEC50 = -log(EC50[M]).

[5] = Cytotoxicity against infected Vero host cells in T. cruzi intracellular assay; format: cell-based, African green monkey; parameters: Max Effect (Vero): unit not given here; conditions: African green monkey, infected Vero host cells, 96 h, read-out: pCC50 (Vero) +/- StDev (converted)
Procedure: (§3) Briefly, these cells were maintained at 37°C and 5% CO2 in MEM supplemented with 10% FCS, sub-culturing every 2–3 days at a ratio of 1:5 after 5 min treatment with Trypsin-EDTA (Gibco).
as §2, with “After 96 h incubation at 37°C in presence of 5% CO2, the plates were fixed with 4% formaldehyde for 20 min at room temperature and stained with 5 μg/mL Hoechst 33342.” left out

Vero cells = assay: as above; format: cell-based, African green monkey; parameters: Max Effect (Vero): unit not given here; conditions: individual replicates
Procedure: as §3
as §2, with “After 96 h incubation at 37°C in presence of 5% CO2, the plates were fixed with 4% formaldehyde for 20 min at room temperature and stained with 5 μg/mL Hoechst 33342.” left out

[6] = Cytotoxicity assay on human HepG2 cells (resazurin); format: cell-based; conditions: human, 72 h, two independent experiments, read-out: pCC50 (HepG2) (converted)
HepG2 cells = assay: as above; format: cell-based; conditions: individual replicates
[7] = Initial hit confirmation, single replicate
[8] = Initial hit confirmation, single replicate, read-out: pIC50 (converted)
[9] = Replicate data generation, individual replicates
[10] = Replicate data generation, individual replicates, read-out: pIC50 (converted)
[11] = average of four independent replicates, read-out: pIC50 +/- StDev (LAPTc) (converted)
[12] = individual replicates, read-out: pEC50 (T. cruzi) (converted)
[13] = 96 h, four independent experiments, read-out: pEC50 (T. cruzi) +/- StDev (converted)
[14] = Vero cells infected with T. cruzi

SMILES	Ki [1] [µM]	inhibition at 30 µM [2] [%]	Hill Slope [3, 7]	Emax [3, 7] [%]	IC50 [3, 8] [µM]	Hill Slope [3, 9]	Maximum Effect [3, 9]	Emax [3, 9] [%]	IC50 [3, 10]	IC50 [3, 11] [µM]	Hit Confirmation [3]	Emax ([4]; individual replicates) [%]	EC50 [4, 12] [µM]	Max Effect (T. cruzi) ([4]; individual replicates)	Max Effect (Vero) (Vero cells)	pEC50 (Vero) (Vero cells)	Max Effect (HepG2) (HepG2 cells)	pEC50 (HepG2) (HepG2 cells)	EC50 [4, 13] [µM]	CC50 at 96 h [5, 14] [µM]	also measured
CC(C)(C)C(=O)NC(C(=O)NO)c1ccc(-n2cccn2)cc1 (centres unmarked) [Compound 13d]	0.028	–	–	–	–	–	–	–	–	–	–	–	–	–	–	–	–	–	–	–	–
N#CC(=Cc1cn(Cc2ccc(C(=O)O)o2)c2ccccc12)c1nc2ccccc2[nH]1 [Compound 15]	–	39	1.5	92	12.6	1.7 and 1.4 and 1.5	87%	88	25.1 µM and 31.6 µM	22.9	confirmed	24	> 50.1	19 and 38	63 and 36 and 65 and 66	4.4 and < 4.3 and 4.5 and 4.3	2.23 and 3	< 4.0	–	–	EC50 ([4]; 96 h, read-out: pEC50 (T. cruzi) +/- StDev (converted)): > 50.1 µM; CC50 at 96 h [5]: 38 µM; CC50 at 72 h [6]: > 100 µM
CCCS(=O)(=O)c1ccc(NS(=O)(=O)c2sc3ccc(Cl)cc3c2C)cc1 [Compound 24]	–	29	2.4	96	31.6	2.4 and 2.3 and 2.6	–	99	12.6 µM and 15.8 µM	17.8	confirmed	–	–	100 and 75 and 105 and 84	92 and 90 and 88 and 91	4.9 and 5.0	-2 and -0.697	< 4.0	14.8	11.5	pEC50 (T. cruzi) ([4]; individual replicates): 4.8 and 4.7 and 5.1; CC50 at 72 h ([6]; HepG2 cells): > 100 µM
NC(=O)C1Cc2ccccc2CN1C(=O)Cc1cn2ccsc2n1 (centres unmarked) [Compound 28]	–	27	0.9	87	10	1.5 and 1.4	72% and 74%	73	39.8 µM and 50.1 µM	30.2	confirmed	27	> 50.1	21 and 20 and 35	32 and 37 and 15 and 16	< 4.3	2.59 and 4.33	< 4.0	> 50.1	> 50.1	CC50 at 72 h ([6]; HepG2 cells): > 100 µM
CC(C)C[C@H](NC(=O)[C@@H](O)[C@H](N)Cc1ccccc1)C(=O)O [bestatin, reference compound]	0.025	–	–	–	–	–	–	–	–	0.24	–	–	–	–	–	–	–	–	–	–	–
CC(C)C[C@@H](NC(=O)[C@H](O)[C@@H](N)Cc1ccc([N+](=O)[O-])cc1)C(=O)O [nitrobestatin]	0.0027	–	–	–	–	–	–	–	–	–	–	–	–	–	–	–	–	–	–	–	–

From paper PMC10901353, “Identification of a potent and selective LAPTc inhibitor by RapidFire-Mass Spectrometry, with antichagasic activity” (PLOS Neglected Tropical Diseases, 2024)
